Assay: molar heat capacity at constant pressure; xn = mol fraction of the nth substance listed
Conditions: 101 kPa, Liquid, Small sample (50 mg) DSC

C1CCOCC1 [tetrahydropyran] + Cc1ccccc1
molar heat capacity at constant pressure [J/K/mol]
Conditions	298.15 K	303.15 K	308.15 K
x1 = 0.0937	157	158.5	160.08
x1 = 0.1369	156.86	158.39	159.99
x1 = 0.1932	156.64	158.18	159.81
x1 = 0.2308	156.46	158.01	159.65
x1 = 0.2894	156.15	157.71	159.37
x1 = 0.3187	155.98	157.54	159.22
x1 = 0.3507	155.79	157.35	159.04
x1 = 0.3916	155.52	157.09	158.79
x1 = 0.4206	155.32	156.9	158.61
x1 = 0.4618	155.02	156.61	158.34
x1 = 0.4906	154.81	156.4	158.14
x1 = 0.5137	154.63	156.23	157.98
x1 = 0.5517	154.32	155.94	157.71
x1 = 0.5907	154	155.62	157.42
x1 = 0.6208	153.74	155.38	157.19
x1 = 0.6623	153.37	155.02	156.86
x1 = 0.6987	153.03	154.69	156.55
x1 = 0.7135	152.89	154.56	156.42
x1 = 0.751	152.52	154.2	156.08
x1 = 0.7917	152.1	153.79	155.68
x1 = 0.8246	151.75	153.44	155.34
x1 = 0.8516	151.45	153.14	155.05
x1 = 0.8914	150.99	152.67	154.58
x1 = 0.9123	150.74	152.41	154.32

C1CCOCC1 [tetrahydropyran] + c1ccccc1
molar heat capacity at constant pressure [J/K/mol]
Conditions	298.15 K	303.15 K	308.15 K
x1 = 0.0859	136.89	138.21	139.54
x1 = 0.1279	137.71	139.06	140.44
x1 = 0.1598	138.32	139.7	141.1
x1 = 0.1982	139.05	140.45	141.88
x1 = 0.2254	139.56	140.97	142.43
x1 = 0.2657	140.3	141.72	143.21
x1 = 0.3017	140.94	142.38	143.89
x1 = 0.3509	141.8	143.26	144.8
x1 = 0.3898	142.45	143.93	145.5
x1 = 0.4176	142.91	144.39	145.99
x1 = 0.4428	143.31	144.81	146.42
x1 = 0.4987	144.17	145.7	147.36
x1 = 0.5234	144.54	146.08	147.76
x1 = 0.5592	145.05	146.61	148.32
x1 = 0.5983	145.58	147.17	148.91
x1 = 0.6132	145.78	147.37	149.13
x1 = 0.6478	146.23	147.84	149.63
x1 = 0.6876	146.71	148.35	150.17
x1 = 0.7231	147.12	148.78	150.63
x1 = 0.7623	147.55	149.22	151.1
x1 = 0.7905	147.85	149.53	151.42
x1 = 0.8217	148.15	149.84	151.75
x1 = 0.8507	148.43	150.12	152.04
x1 = 0.9003	148.86	150.54	152.47

Reference: the NIST ThermoML archive (doi:10.1016/j.fluid.2014.06.024)
